Converted amounts (≈) assume the structure as drawn.
Test system: Candida albicans
Experiment: Antifungal activity Candida albicans CMCC(F) 98001 assessed as inhibition of fungal growth incubated for 24 hrs by broth micro dilution method
Type: functional

C\C1=C/C=C/C=C/C=C/C=C/C[C@@H](C)OC(=O)C[C@@H](O)C[C@@H](O)C[C@@H](O)C[C@@H](O)C[C@@H](O)C[C@@H](O)C[C@@H]1O showed an MIC of over 12.5 µg/mL.

C\C1=C/C=C/C=C/C=C/C=C/[C@H](O)[C@@H](C)OC(=O)C[C@@H](O)C[C@@H](O)C[C@@H](O)C[C@@H](O)C[C@@H](O)C[C@@H](O)C[C@@H]1O showed an MIC of over 12.5 µg/mL.

In the case of CCCCC[C@H]1C(=O)O[C@H](C)[C@@H](O)/C=C/C=C/C=C/C=C/C=C(\C)[C@@H](O)C[C@H](O)C[C@H](O)C[C@H](O)C[C@H](O)C[C@H](O)C[C@@H]1O, the MIC is reported as 3.13 µg/mL (≈ 5.01 µM).

In the case of C\C1=C/C=C/C=C/C=C/C=C/[C@H](O)[C@@H](C)OC(=O)[C@H](CCCC(C)C)[C@@H](O)C[C@@H](O)C[C@@H](O)C[C@@H](O)C[C@@H](O)C[C@@H](O)C[C@@H]1O, the MIC is reported as 1.56 µg/mL (≈ 2.44 µM).

C[C@@H]1[C@H](O)[C@@H](C)/C=C/C=C/C=C/C=C/C=C/C=C/C=C/[C@H](O[C@@H]2O[C@H](C)[C@@H](O)[C@H](N)[C@@H]2O)C[C@@H]2O[C@](O)(C[C@@H](O)C[C@@H](O)[C@H](O)CC[C@@H](O)C[C@@H](O)CC(=O)O[C@H]1C)C[C@H](O)[C@H]2C(=O)O [AMPHOTERICIN B] showed an MIC of 0.2 µg/mL (≈ 0.216 µM).

In the case of CCCCCC[C@@H]1CC[C@@H](O)C[C@@H](O)C[C@@H](O)C[C@@H](O)C[C@@H](O)C[C@@H](O)C[C@H](O)/C(C)=C/C=C/C=C/C=C/C=C/[C@H](O)[C@@H](C)OC1=O, the MIC is reported as over 12.5 µg/mL.

For C\C1=C/C=C/C=C/C=C/C=C/[C@H](O)[C@@H](C)OC(=O)[C@H](CCC(C)C)[C@@H](O)C[C@@H](O)C[C@@H](O)C[C@@H](O)C[C@@H](O)C[C@@H](O)C[C@@H]1O, the MIC was 3.13 µg/mL (≈ 5.01 µM).

CC(C)CC[C@H]1C(=O)O[C@H](C)[C@@H](O)/C=C/C=C/C=C/C=C/C=C/[C@@H](O)C[C@H](O)C[C@H](O)C[C@H](O)C[C@H](O)C[C@H](O)C[C@@H]1O was tested, and the MIC was over 12.5 µg/mL.

C\C1=C/C=C/C=C/C=C/C=C/C[C@@H](C)OC(=O)C[C@@H](O)C[C@@H](O)C[C@@H](O)C[C@@H](O)C[C@@H](O)C[C@@H]1O was tested, and the MIC was over 12.5 µg/mL.

For C[C@@H]1C/C=C/C=C/C=C/C=C/C=C/[C@@H](O)C[C@H](O)C[C@H](O)C[C@H](O)C[C@H](O)C[C@H](O)C[C@H](O)CC(=O)O1, the MIC was over 12.5 µg/mL.

With CCCC[C@H]1C(=O)O[C@H](C)[C@@H](O)/C=C/C=C/C=C/C=C/C=C(\C)[C@@H](O)C[C@H](O)C[C@H](O)C[C@H](O)C[C@H](O)C[C@H](O)C[C@@H]1O the MIC was 6.25 µg/mL (≈ 10.2 µM).

For CCCCC[C@@H](O)[C@H]1C(=O)O[C@H](C)[C@@H](O)/C=C/C=C/C=C/C=C/C=C(\C)[C@@H](O)C[C@H](O)C[C@H](O)C[C@H](O)C[C@H](O)C[C@H](O)C[C@@H]1O [FILIPIN], the MIC was 12.5 µg/mL (≈ 19.1 µM).

For CCCCCC[C@H]1C(=O)O[C@H](C)[C@@H](O)/C=C/C=C/C=C/C=C/C=C(\C)[C@@H](O)C[C@H](O)C[C@H](O)C[C@H](O)C[C@H](O)C[C@H](O)C[C@@H]1O, the MIC was 1.56 µg/mL (≈ 2.44 µM).

Source: ChEMBL document CHEMBL5143582, “Genome-Guided Discovery of Antifungal Filipins from a Deep-Sea-Derived Streptomyces antibioticus” (2022)
